pIC50: −log10 of the molar value. Where a name gives a salt, the structure may show the parent alone.
Legend:
[1] = target: human catalytic domain HDAC4 protein (amino acids 648-1032) (Homo sapiens (Human), UniProt P56524); assay: HDAC4 catalytic domain enzymatic activity, fluorogenic substrate Boc-Lys(TFA)-AMC; conditions: read-out: HDAC4 Biochemical IC50
Excerpt: Example 25: Analysis of Inhibition of HDAC4 with Class IIa Histone Deacetylase (HDAC) Inhibitors
The potency of Class IIa Histone Deacetylase (HDAC) inhibitors was quantified by measuring the Histone Deacetylase 4 (HDAC4) catalytic domain enzymatic activity using the fluorogenic substrate, Boc-Lys(TFA)-AMC. The substrate was deacetylated to Boc-Lys-AMC by HDAC4. […] The fluorescence of the sample was directly related to the histone deacetylase activity in the sample.
(§1) Serially Dilute HDAC Inhibitor Compounds.
(§2) Serial dilutions of the HDAC inhibitors and control reference compound (1-(5-(3-((4-(1,3,4-oxadiazol-2-yl)phenoxy)methyl)-1,2,4-oxadiazol-5-yl)thiophen-2-yl)-2,2,2-trifluoroethanone) were made by first resuspending the lyophilized compound to a final concentration of 10 mM in 100% dimethyl sulfoxide (DMSO). Stocks of 60 μL aliquots of the 10 mM compound in DMSO were prepared and stored at −20° C. From one stock aliquot of each tested compound and the reference compound, a 16-point serial dilution was prepared according to Table 1 using a 125 μL 16-channel Matrix multi-channel pipette (Matrix Technologies Ltd).
2 μL (200×) of each diluted solution and each control (full activity: 100% DMSO alone or full inhibition 1 mM) was stamped into V-bottomed polypropylene 384-well compound plates using either the Bravo (384-well head from Agilent) or 12.5 μL 16-channel Matrix multi-channel pipette (Matrix Technologies Ltd). Each well with the 200× compound solution was diluted 1:20 by the addition of 38 μL assay buffer+DMSO (10.5% DMSO, 45 mM Tris-HCl, 123 mM NaCl, 2.4 mM KCl, and 0.9 mM MgCl2 at pH 8.0 and equilibrated to r.t.).
Prepare HDAC4 Catalytic Domain Enzyme (0.2 μg/mL).
The HDAC4 catalytic domain enzyme was human catalytic domain HDAC4 protein (amino acids 648-1032) with a C-terminal 6× histidine tag, produced by BioFocus. A working solution of enzyme was prepared from a […] stock aliquot of HDAC4 catalytic domain (thawed on ice) diluted to 0.2 μg/mL with assay buffer (50 mM Tris-HCl, 137 mM NaCl, 2.7 mM KCl, and 1 mM MgCl2 at pH 8 and equilibrated to r.t.) just prior to the addition of the enzyme to the assay.
Prepare 5× (50 μM) Boc-Lys(TFA)-AMC Substrate.
5× (50 μM) substrate was prepared just prior to the addition to the assay. A 1 mM substrate stock was made by diluting a 100 mM Boc-Lys(TFA)-AMC in DMSO solution 1:100 by adding it drop-wise to assay buffer (equilibrated to r.t.) while vortexing at slow speed to prevent precipitation. The 5× substrate was prepared by diluting the 1 mM substrate solution 1:20 by adding it drop-wise to assay buffer (equilibrated to r.t.) while vortexing at slow speed to prevent precipitation.
Prepare 3× (30 μM) Developer/Stop Solution.
3× (30 μM) Developer/Stop Solution was prepared just prior to addition to the plate by diluting a stock solution of 10 mM reference compound 1:333 in 25 mg/mL trypsin (PAA Laboratories Ltd.) equilibrated to r.t.
5 μL of each solution of 1:20 diluted compound from above was transferred to a clear bottomed, black, 384-well assay plate using the Bravo or the Janus (384-well MDT head from Perkin Elmer). Using a 16-channel Matrix multi-channel pipette, 35 μL of the working solution of HDAC4 catalytic domain enzyme (0.2 μg/mL in assay buffer) was transferred to the assay plate. The assay was then started by adding 10 μL of 5× (50 μM) substrate to the assay plates using either the Bravo, Janus or 16-channel Matrix multi-channel pipette. The assay plate was then shaken for two minutes on an orbital shaker at 900 rpm (rotations per minute). Next the plate was incubated for 15 minutes at 37° C. The reaction was stopped by adding 25 μL of 3× (30 μM) developer/stop solution to the assay plates using either the Bravo, Janus or a 16-channel Matrix multi-channel pipette. Assay plates were then shaken for 5 minutes on an orbital shaker at 1200 rpm. Next, the assay plates were incubated at 37° C. for 1 hour in a tissue culture incubator. […]

[2] = tested on: Cellular Class I HDAC activity; assay: Inhibition of cellular Class I HDAC activity; Cell (Lys-Ac) substrate, Jurkat E6-1 cells; assay type: cell-based; conditions: Boc-Lys(Ac)-AMC substrate
Excerpt: (§3) The potency of Class IIa Histone Deacetylase (HDAC) inhibitors was quantified by measuring the cellular histone deacetylase enzymatic activity using the fluorogenic substrate, Boc-Lys(TFA)-AMC. After penetration in Jurkat E6-1 cells, the substrate was deacetylated to Boc-Lys-AMC. After cell lysis and cleavage by trypsin, the fluorophore AMC was released from the deacetylated substrate only. The fluorescence of the sample was directly related to the histone deacetylase activity in the sample.
(§4) Jurkat E6.1 cells were cultured according to standard cell culture protocols in Jurkat E6.1 Growth Media (RPMI without phenol red, 10% FBS, 10 mM HEPES, and 1 mM Sodium Pyruvate). Jurkat E6.1 cells were counted using a Coulter Counter and resuspended in Jurkat E6.1 growth media at a concentration of 75,000 cells/35 μL. 35 μL or 75,000 cells was seeded into Greiner microtitre assay plates. The plates were then incubated at 37° C. and 5% CO2 while other assay components were being prepared.
as §2, with “DMSO.” for “dimethyl sulfoxide (DMSO).”, “70” for “60”, “pipette.” for “pipette (Matrix Technologies Ltd).”
(§5) 2 μL (200×) of each diluted solution and each control (full activity: 100% DMSO alone or full inhibition 1 mM) was stamped into V-bottom polypropylene 384-well compound plates using either the Bravo, Janus, or 12.5 μL 16-channel Matrix multi-channel pipette. Each well with the 200× compound solution was diluted 1:20 by the addition of 38 μL Jurkat assay buffer+DMSO (9.5% DMSO, RPMI without phenol red, 0.09% FBS, 9 mM Hepes, and 0.9 mM Sodium Pyruvate equilibrated to r.t.)
(§6) 5× (500 μM) substrate was prepared just prior to the addition to the assay. The 5× substrate was prepared by diluting a 100 mM Boc-Lys(TFA)-AMC in DMSO solution 1:200 by adding it drop-wise to Jurkat assay medium (RPMI without phenol red, 0.1% FBS, 10 mM Hepes, and 1 mM Sodium Pyruvate equilibrated to 37° C.) while vortexing at slow speed to prevent precipitation.
(§7) 10 mL of 3× lysis buffer was prepared with 8.8 mL of 3× stock lysis buffer (50 mM Tris-HCl, pH 8.0, 137 mM NaCl, 2.7 mM KCl, 1 mM MgCl2, 1% Nonidet P40 Substitute equilibrated to r.t.) and 1.2 mL of 3 mg/mL Trypsin equilibrated to r.t.
(§8) 5 μL of each solution of 1:20 diluted compound from above was transferred to the Greiner microtitre assay plates with 75,000 cells/well using the Bravo. Cells were then incubated for 2 hours at 37° C. and 5% CO2. The assay was then started by adding 10 μL of 5× (500 μM) substrate to the assay plate using either the Bravo or 16-channel Matrix multi-channel pipette. The cells were then incubated for 3 hours at 37° C. and 5% CO2. Next, 25 μL of 3× lysis buffer was added to each well using either the 125 μL 16 channel pipette or the Bravo. The assay plate was then incubated overnight (15-16 hours) at 37° C. and 5% CO2. The following day, the plates were shaken on an orbital shaker for 1 minute at 900 rpm. Finally the top read fluorescence (Excitation: 355 nm, Emission: 460 nm) was measured using PerkinElmer EnVision.
Example 30: Analysis of Inhibition of Cellular Class I HDAC Activity with Class IIa Histone Deacetylase (HDAC) Inhibitors; Cell (Lys-Ac) Substrate
The Class I HDAC activity of Class IIa Histone Deacetylase (HDAC) inhibitors was quantified by measuring the cellular histone deacetylase enzymatic activity using the fluorogenic substrate, Boc-Lys(Ac)-AMC. This was performed according to the procedure in Example 29, using Boc-Lys(Ac)-AMC substrate in place of Boc-Lys(TFA)-AMC.

[3] = tested on: Cellular Class IIa HDAC activity; assay: Inhibition of cellular Class IIa HDAC activity; Cell (Lys-TFA) substrate, Jurkat E6-1 cells; assay type: cell-based; conditions: Boc-Lys(TFA)-AMC substrate
Excerpt: Example 29: Analysis of Inhibition of Cellular Class IIa HDAC Activity with Class IIa Histone Deacetylase (HDAC) Inhibitors; Cell (Lys-TFA) Substrate
as §3
Jurkat E6.1 Cell Culture and Plating.
as §4, §1
as §2, with “DMSO.” for “dimethyl sulfoxide (DMSO).”, “70” for “60”, “pipette.” for “pipette (Matrix Technologies Ltd).”
as §5
Prepare 5× (500 μM) Boc-Lys(TFA)-AMC Substrate.
as §6, §7, §8

Sequence of human catalytic domain HDAC4 protein (amino acids 648-1032) (P56524 648-1032): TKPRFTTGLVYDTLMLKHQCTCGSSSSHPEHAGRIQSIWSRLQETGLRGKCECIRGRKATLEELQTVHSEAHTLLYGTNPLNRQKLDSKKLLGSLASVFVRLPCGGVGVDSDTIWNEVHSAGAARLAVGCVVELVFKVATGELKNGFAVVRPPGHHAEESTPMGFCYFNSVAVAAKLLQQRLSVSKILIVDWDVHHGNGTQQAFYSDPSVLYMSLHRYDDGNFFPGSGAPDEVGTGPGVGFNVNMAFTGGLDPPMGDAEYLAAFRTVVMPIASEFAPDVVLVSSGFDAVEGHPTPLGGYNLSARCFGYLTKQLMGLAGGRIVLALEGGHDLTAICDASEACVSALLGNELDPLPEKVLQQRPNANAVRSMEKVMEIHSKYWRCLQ

SMILES	pIC50 [1]	pIC50 [2]	pIC50 [3]
C[C@H](CN1CCCCCC1)NC(=O)c1ccc(-c2noc(C(F)(F)F)n2)cc1 [Example 13, (R)—N-(1-(Azepan-1-yl)propan-2-yl)-4-(5-(trifluoromethyl)-1,2,4-oxadiazol-3-yl)benzamide]	7.96	5.77	7.52
C[C@H](CN1CCC12CCC2)NC(=O)c1ccc(-c2noc(C(F)(F)F)n2)cc1 [Example 14, (R)—N-(1-(1-Azaspiro[3.3]heptan-1-yl)propan-2-yl)-4-(5-(trifluoromethyl)-1,2,4-oxadiazol-3-yl)benzamide]	7.80	5.11	6.74
C[C@H](CN1CCC2(CC2)C1)NC(=O)c1ccc(-c2noc(C(F)(F)F)n2)cc1 [Example 15, (R)—N-(1-(5-Azaspiro[2.4]heptan-5-yl)propan-2-yl)-4-(5-(trifluoromethyl)-1,2,4-oxadiazol-3-yl)benzamide]	8.10	5.29	7.16
C[C@H](CN1CC2CCC(C2)C1)NC(=O)c1ccc(-c2noc(C(F)(F)F)n2)cc1 [Example 16, N-((2R)-1-(3-Azabicyclo[3.2.1]octan-3-yl)propan-2-yl)-4-(5-(trifluoromethyl)-1,2,4-oxadiazol-3-yl)benzamide]	8.15	6.05	7.92
C[C@H](CN1CC2CCCC2C1)NC(=O)c1ccc(-c2noc(C(F)(F)F)n2)cc1 (stereo partly drawn) [Example 17, 2-((R)-2-(4-(5-(Trifluoromethyl)-1,2,4-oxadiazol-3-yl)benzamido)propyl)octahydrocyclopenta[c]pyrrol-2-ium formate]	7.92	6.16	7.55
C[C@H](CN1CCc2ccncc2C1)NC(=O)c1ccc(-c2noc(C(F)(F)F)n2)cc1 [Example 18, (R)—N-(1-(3,4-dihydro-2,7-naphthyridin-2(1H)-yl)propan-2-yl)-4-(5-(trifluoromethyl)-1,2,4-oxadiazol-3-yl)benzamide]	8.22	4.90	6.72
C[C@H](CN1CC2CCC2C1)NC(=O)c1ccc(-c2noc(C(F)(F)F)n2)cc1 (stereo partly drawn) [Example 19, N-((2R)-1-(3-Azabicyclo[3.2.0]heptan-3-yl)propan-2-yl)-4-(5-(trifluoromethyl)-1,2,4-oxadiazol-3-yl)benzamide]	8.40	5.96	8.05
C[C@H](CN1CC2C(C1)C2(C)C)NC(=O)c1ccc(-c2noc(C(F)(F)F)n2)cc1 (stereo partly drawn) [Example 22, N-((2R)-1-(6,6-Dimethyl-3-azabicyclo[3.1.0]hexan-3-yl)propan-2-yl)-4-(5-(trifluoromethyl)-1,2,4-oxadiazol-3-yl)benzamide]	7.70	5.21	7.07
C[C@H](CN1CCC[C@@H]1C)NC(=O)c1ccc(-c2noc(C(F)(F)F)n2)c(F)c1 [Example 23, (2S)-1-((R)-2-(3-Fluoro-4-(5-(trifluoromethyl)-1,2,4-oxadiazol-3-yl)benzamido)propyl)-2-methylpyrrolidin-1-ium formate]	8.05	4.67	7.14
C[C@H](CN1CCC[C@@H]1C)NC(=O)c1ccc(-c2noc(C(F)(F)F)n2)cn1 [Example 24, N—((R)-1-((S)-2-Methylpyrrolidin-1-yl)propan-2-yl)-5-(5-(trifluoromethyl)-1,2,4-oxadiazol-3-yl)picolinamide]	6.87	4.47	5.99

Source: patent US10053434B2, “Histone deacetylase inhibitors and compositions and methods of use thereof” (CHDI Foundation, Inc., priority 2015, dated 2018)
